According to patent publication US20110289824A1, “COMPOUNDS, METHODS, AND DEVICES FOR DETECTING AND/OR TREATING INSECT INFESTATION” (priority 2010, published 2011):

Assays:
[1] = tested on: Cimex lectularius (adults); assay: Device choice test in arenas: compound device vs mixture device vs untreated control (Tables 2 and 3); format: in vivo; conditions: 1.0 mg of each compound per device (Device A), 20 bugs per arena, against mixture device and UTC
Description: The attraction, arresting, or aggregation of bed bugs from the species Cimex lectularius to cholesterol, 2-Heptanone, and 2-Heptanone oxime was evaluated in Tables 2 and 3 by the following methodology. In this example, 20 Cimex lectularius (adults) were placed in plastic boxes (20×20 cm). The bottom of each box was covered with paper. A piece of folded filter paper served as a shelter for the Cimex lectularius bed bugs. The bed bugs were fed two days before they were put into the test-arenas. As set forth in Table 2, three types of devices were compared: Device (A): a device containing cholesterol (Box 1), a device containing 2-Heptanone (Box 2), a device containing 2-Heptanone-oxime (Box 3), and a device containing 2-Heptanone and 2-Heptanone-oxime (Box 4); Device (B): a device containing a mixture of cholesterol, 2-Heptanone, and 2-Heptanone-oxime (Box 1-4); and Device (C) a device without an attractant, arresting, or aggregating compound, serving as a control (“UTC”). The concentrations of the compounds tested are as follows: Cholesterol—1% in ethanol, 0.1 ml per detection device (1 mg a.i.); 2-Heptanone—1% in ethanol, 0.1 ml per detection device (1 mg a.i.); and 2-Heptanone oxime—1% in ethanol, 0.1 ml per detection device (1 mg a.i.). [table] The number of bed bugs in the different devices and on the bottom of the arenas were counted at day 1, day 4, and day 7 after the start of the trial. The total number of bugs per arena was 20. The relative effectiveness of cholesterol, 2-Heptanone, and 2-Heptanone-oxime in attracting, arresting, or aggregating bed bugs was evaluated in Table 3.

[2] = tested on: Cimex lectularius (adults); assay: Device choice test in arenas: treated device vs untreated control at 0.1 mg and 0.5 mg (Tables 4 and 5); format: in vivo; conditions: 20 bugs per arena, against UTC device
Description: In this example, 20 Cimex lectularius (adults) were placed in plastic boxes (20×20 cm). The bottom of each box was covered with paper. A piece of folded filter paper served as a shelter for the Cimex lectularius bed bugs. The bed bugs were fed two days before they were put into the test-arenas. As set forth in Table 4, the ability of 2-Heptanone and 2-Heptanone-oxime to attract bed bugs at a concentration of 0.1 mg and 0.5 mg was evaluated. Device (A) includes 2-Heptanone, 2-Heptanone oxime, or both 2-Heptanone and 2-Heptanone oxime. Device (B) served as an untreated control. [table] […] The total number of bugs per arena was 20.

SMILES | Number of bed bugs in the device (Compounds) ([1]; day 1) | Number of bed bugs in the device (Compounds) ([1]; day 4) | Number of bed bugs in the device (Compounds) ([1]; day 7) | Number of bed bugs in the device (Compounds + concentrations) ([2]; 0.1 mg per device, day 1) | Number of bed bugs in the device (Compounds + concentrations) ([2]; 0.1 mg per device, day 3) | Number of bed bugs in the device (Compounds + concentrations) ([2]; 0.1 mg per device, day 6) | Number of bed bugs in the device (Compounds + concentrations) ([2]; 0.5 mg per device, day 1) | Number of bed bugs in the device (Compounds + concentrations) ([2]; 0.5 mg per device, day 3) | Number of bed bugs in the device (Compounds + concentrations) ([2]; 0.5 mg per device, day 6)
CCCCCC(C)=NO [2-Heptanone-oxime, 2-Heptanone oxime] | 13 | 13 | 13 | 12 | 14 | 15 | 8 | 11 | 12
CCCCCC(C)=O [2-Heptanone] | 2 | 2 | 2 | 0 | 0 | 1 | 0 | 0 | 1
CC(C)CCC[C@@H](C)[C@H]1CC[C@H]2[C@@H]3CC=C4C[C@@H](O)CC[C@]4(C)[C@H]3CC[C@]12C [Cholesterol, cholesterol] | 1 | 1 | 1 |  |  |  |  |  | 
